This passage reports GI50 and IC50 results from patent US20260078135A1, “POLYCYCLIC QUINAZOLINES FOR INHIBITION OF ERBB2” (Enliven Inc., priority 2022, published 2026).

Where a name gives a salt, the structure may show the parent alone.

The target of one assay is Ba/F3 ERBB2 YVMA (Homo sapiens, UniProt P04626, DUP772-775, cells depend on it). Briefly: Cell viability assay (CellTiter Glo), Ba/F3 cells engineered to express ERBB2 YVMA. As to conditions: Ba/F3 cells expressing human ERBB2 YVMA mutant, 72 hours, read-out: Ba/F3 ERBB2 YVMA, IC50. The assay is classed as cell-based, mouse. Here is the method:
Cells were treated with compounds, and cell viability was measured as a metric of kinase inhibition.
BT-474, A431, MDA-MB-175VII, NCI-H1781, MCF7, and Ba/F3 cell lines were tested. The Ba/F3 cell line is IL-3-dependent mouse cell line derived from the C3H mouse strain. Ba/F3 cell lines were engineered to express human ERBB2 or EGFR kinases, rendering the cells IL-3 independent. The lines were generated via retroviral transduction utilizing a Moloney murine leukemia virus (MMLV) promoter, and constructs are stably integrated into the cell genome. The sequences of the ERBB2 and EGFR genes used were NCBI Reference Sequences NM_004448.3 and NM_005228.3, respectively.
BT-474, A431, MDA-MB-175VII, NCI-H1781 and MCF7 cells were grown in the appropriate growth medium as described in Table B2 below, and harvested at 50-80% confluence. BT-474, A431, MDA-MB-175VII, NCI-H1781 and MCF7 cells were counted and seeded at 2,000 or 1,500 cells per well in 384-well tissue culture plates (see Table B2). Similarly, Ba/F3 cell lines engineered to express EGFR, ERBB2, or ERBB2 mutants were grown, harvested, counted and seeded at 3000 cells per well in 96-well plates. A subset of wells contained media only (low control, “LC”).
Table B1 provides the growth media and number of cells seeded per well for the each cell line.
Compounds were dissolved in DMSO and serially diluted. Serially-diluted compound or a DMSO only control (high control, “HC”) was added to the plated cells in each well. Compounds were tested at concentrations of about 10 μM to 0.51 nM, using three-fold dilutions. The final proportion of DMSO never exceeded 0.1%.
Plates were placed in a 37° C., 5% CO2 incubator for 72 hours. Plates were then removed from the incubator and equilibrated for 15 minutes at room temperature. 40 μl of CellTiter Glo reagent (Promega) was added to measure the relative level of metabolically active cells by quantifying intracellular ATP concentrations. Plates were incubated for 30 minutes at room temperature, and luminescence was measured. Percent viability was normalized to a vehicle control only using the following formula: % viability=100×(Lumsample−LumLC)/(LumHC−LumLC). Graphical curves were fitted using a nonlinear regression model with a sigmoidal dose response.
On the technique in general: In ATP-based viability assays light output follows the ATP content of the culture.

Assay [1] deals with T1, phosphorylated EGFR (pEGFR) (Homo sapiens, UniProt P00533).
T1 construct: performed to measure phosphorylated EGFR levels using A431 cells (10% FBS); endogenous in cells; host or cells: A431
Briefly: Detection of phosphorylated EGFR (pEGFR) by AlphaLISA in EGF-stimulated A431 cells. The assay is classed as cell-based. The note with it: A431 cells (10% FBS), 4 hours incubation, EGF 30 ng/mL for 10 minutes. A digest of the protocol:
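pEGFR was quantified by AlphaLISA in lysates of A431 cells (10% FBS) given a 10 min pulse of EGF at 30 ng/mL after 4 h compound exposure at 37 °C. IC50 came from a four-parameter fit of % inhibition between DMSO and staurosporine controls.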

Assay [2] has as its target T2, phosphorylated ERBB2 (pERBB2) (Homo sapiens, UniProt P04626).
T2 construct: endogenous in cells; host or cells: BT-474
Put plainly: Detection of phosphorylated ERBB2 (pERBB2) by ELISA in BT-474 cells. Type of assay: cell-based. The note with it: four hour incubation. Put shortly: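 BT-474 cells were treated with compounds (fourfold dilutions, 10 μM to 0.01 nM final) for 4 h at 37 °C, then lysed. pERBB2 in lysates was quantified by ELISA with an HRP anti-phosphotyrosine detection antibody and TMB read at 450 nm; % relative activity was normalized to no-cell and 0.1% DMSO controls.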
(In general: An ELISA detects its analyte on a solid surface through an enzyme-linked reagent.)

T1 sequence (P00533 25-1210): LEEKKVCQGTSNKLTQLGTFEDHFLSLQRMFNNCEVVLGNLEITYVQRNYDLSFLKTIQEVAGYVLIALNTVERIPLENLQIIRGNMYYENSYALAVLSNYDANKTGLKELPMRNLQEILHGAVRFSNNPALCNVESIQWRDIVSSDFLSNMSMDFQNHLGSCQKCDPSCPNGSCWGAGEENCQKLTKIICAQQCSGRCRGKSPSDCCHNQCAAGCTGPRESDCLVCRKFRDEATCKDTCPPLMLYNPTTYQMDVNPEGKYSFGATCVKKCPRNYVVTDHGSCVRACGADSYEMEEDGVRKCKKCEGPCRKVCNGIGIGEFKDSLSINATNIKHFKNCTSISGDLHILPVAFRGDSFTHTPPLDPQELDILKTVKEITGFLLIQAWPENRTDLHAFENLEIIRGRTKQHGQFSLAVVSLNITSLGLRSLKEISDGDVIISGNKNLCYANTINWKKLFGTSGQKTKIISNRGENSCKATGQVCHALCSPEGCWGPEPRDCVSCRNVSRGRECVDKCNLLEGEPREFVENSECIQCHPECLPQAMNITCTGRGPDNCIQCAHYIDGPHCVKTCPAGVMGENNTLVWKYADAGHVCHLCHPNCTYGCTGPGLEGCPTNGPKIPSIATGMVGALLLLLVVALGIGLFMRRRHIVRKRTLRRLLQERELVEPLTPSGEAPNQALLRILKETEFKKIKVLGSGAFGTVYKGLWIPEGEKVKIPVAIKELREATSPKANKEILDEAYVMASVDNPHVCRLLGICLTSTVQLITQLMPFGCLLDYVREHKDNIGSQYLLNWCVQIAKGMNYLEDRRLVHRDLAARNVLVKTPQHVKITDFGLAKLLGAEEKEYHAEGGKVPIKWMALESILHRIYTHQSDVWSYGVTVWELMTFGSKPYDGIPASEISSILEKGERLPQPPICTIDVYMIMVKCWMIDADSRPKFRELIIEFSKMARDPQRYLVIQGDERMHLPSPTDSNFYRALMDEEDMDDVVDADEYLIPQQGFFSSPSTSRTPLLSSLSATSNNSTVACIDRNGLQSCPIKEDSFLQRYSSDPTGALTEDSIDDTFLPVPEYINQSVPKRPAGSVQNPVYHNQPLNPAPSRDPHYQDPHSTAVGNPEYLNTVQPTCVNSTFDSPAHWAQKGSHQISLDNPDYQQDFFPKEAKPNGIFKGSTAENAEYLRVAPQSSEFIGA
T2 sequence (P04626 23-1255): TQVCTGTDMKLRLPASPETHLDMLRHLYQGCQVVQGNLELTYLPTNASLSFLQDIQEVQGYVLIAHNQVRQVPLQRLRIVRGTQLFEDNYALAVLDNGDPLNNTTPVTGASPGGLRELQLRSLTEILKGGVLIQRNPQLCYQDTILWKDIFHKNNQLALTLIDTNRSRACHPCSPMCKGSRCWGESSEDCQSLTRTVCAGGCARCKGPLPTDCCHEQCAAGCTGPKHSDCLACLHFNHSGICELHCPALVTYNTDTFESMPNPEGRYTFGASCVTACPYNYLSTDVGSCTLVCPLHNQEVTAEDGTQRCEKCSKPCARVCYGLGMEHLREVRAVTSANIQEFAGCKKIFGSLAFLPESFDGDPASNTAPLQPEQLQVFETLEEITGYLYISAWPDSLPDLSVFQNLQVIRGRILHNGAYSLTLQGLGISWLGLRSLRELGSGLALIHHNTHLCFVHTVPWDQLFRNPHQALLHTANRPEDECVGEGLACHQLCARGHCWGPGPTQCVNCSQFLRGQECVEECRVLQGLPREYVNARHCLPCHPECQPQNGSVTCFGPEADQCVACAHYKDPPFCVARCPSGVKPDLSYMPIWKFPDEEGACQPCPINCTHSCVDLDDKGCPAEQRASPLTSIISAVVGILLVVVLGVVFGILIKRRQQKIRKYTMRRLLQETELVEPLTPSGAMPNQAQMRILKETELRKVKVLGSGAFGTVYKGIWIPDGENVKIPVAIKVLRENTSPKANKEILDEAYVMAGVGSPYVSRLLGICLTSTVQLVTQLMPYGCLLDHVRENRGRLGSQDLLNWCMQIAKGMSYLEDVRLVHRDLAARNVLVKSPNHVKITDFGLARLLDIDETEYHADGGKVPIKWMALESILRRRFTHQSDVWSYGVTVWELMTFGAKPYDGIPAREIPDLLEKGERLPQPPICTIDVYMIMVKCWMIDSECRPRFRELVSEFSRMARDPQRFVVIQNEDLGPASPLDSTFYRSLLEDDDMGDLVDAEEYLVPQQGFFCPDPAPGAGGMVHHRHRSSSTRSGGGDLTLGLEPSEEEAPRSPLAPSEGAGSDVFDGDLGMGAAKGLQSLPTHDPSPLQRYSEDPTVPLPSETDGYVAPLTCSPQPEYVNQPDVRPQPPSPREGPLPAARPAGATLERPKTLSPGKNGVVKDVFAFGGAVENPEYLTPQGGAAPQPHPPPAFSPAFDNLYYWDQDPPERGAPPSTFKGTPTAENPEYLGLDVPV
Chain of Ba/F3 ERBB2 YVMA (P04626 with tags, fused parts or gaps DUP772-775): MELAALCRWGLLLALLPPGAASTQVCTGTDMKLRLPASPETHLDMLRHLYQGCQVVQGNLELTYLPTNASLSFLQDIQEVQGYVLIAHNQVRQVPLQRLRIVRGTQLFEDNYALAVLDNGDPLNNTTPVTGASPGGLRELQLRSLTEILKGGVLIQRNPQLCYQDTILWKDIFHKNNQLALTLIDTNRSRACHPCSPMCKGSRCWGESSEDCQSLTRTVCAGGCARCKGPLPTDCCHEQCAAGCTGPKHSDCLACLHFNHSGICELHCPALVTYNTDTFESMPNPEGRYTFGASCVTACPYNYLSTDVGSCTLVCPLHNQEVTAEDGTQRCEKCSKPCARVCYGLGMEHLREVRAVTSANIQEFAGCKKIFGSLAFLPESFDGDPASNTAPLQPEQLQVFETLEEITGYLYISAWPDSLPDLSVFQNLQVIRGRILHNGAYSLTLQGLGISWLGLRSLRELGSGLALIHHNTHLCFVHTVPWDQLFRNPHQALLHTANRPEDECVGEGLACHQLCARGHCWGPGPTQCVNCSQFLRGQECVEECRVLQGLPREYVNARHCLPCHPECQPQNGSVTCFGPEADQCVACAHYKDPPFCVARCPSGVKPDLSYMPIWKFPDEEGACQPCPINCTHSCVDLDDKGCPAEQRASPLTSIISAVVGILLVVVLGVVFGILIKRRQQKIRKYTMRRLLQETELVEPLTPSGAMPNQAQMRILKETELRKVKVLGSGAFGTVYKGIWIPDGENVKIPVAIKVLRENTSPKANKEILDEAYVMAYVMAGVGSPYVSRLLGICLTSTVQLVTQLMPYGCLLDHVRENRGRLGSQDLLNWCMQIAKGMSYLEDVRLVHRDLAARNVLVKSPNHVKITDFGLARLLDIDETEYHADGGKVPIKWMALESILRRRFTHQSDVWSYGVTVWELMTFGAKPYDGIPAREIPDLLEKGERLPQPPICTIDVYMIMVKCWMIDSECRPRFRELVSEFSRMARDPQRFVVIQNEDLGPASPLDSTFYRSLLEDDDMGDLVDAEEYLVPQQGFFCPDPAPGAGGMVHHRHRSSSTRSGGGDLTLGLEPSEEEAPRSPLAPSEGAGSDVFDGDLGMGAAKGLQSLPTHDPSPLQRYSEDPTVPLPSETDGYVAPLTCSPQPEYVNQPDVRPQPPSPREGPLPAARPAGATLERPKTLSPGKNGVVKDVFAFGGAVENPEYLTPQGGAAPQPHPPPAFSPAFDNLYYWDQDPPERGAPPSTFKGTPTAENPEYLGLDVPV

As for `Cc1cc(Nc2ncnc3cc4c(cc23)N2CCN(C(=O)/C=C/CN(C)C)C[C@H]2CO4)ccc1Oc1ccc2c(c1)ncn2C` [Compound 11, (S,E)-4-(dimethylamino)-1-(11-((3-methyl-4-((1-methyl-1H-benzo[d]imidazol-5-yl)oxy)phenyl)amino)-1,2,4a,5-tetrahydropyrazino[1′,2′:4,5][1,4]oxazino[3,2-g]quinazolin-3(4H)-yl)but-2-en-1-one], the GI50 at Ba/F3 ERBB2 YVMA stood at 65.3 nM. In addition, the IC50 in assay [1] came to 1180 nM; in assay [2], 73.3 nM.

With `Cc1cc(Nc2ncnc3cc4c(cc23)N2CCN(C(=O)/C=C/CN(C)C)C[C@@H]2CO4)ccc1Oc1ccc2c(c1)ncn2C` [Compound 12, (R,E)-4-(dimethylamino)-1-(11-((3-methyl-4-((1-methyl-1H-benzo[d]imidazol-5-yl)oxy)phenyl)amino)-1,2,4a,5-tetrahydropyrazino[1′,2′:4,5][1,4]oxazino[3,2-g]quinazolin-3(4H)-yl)but-2-en-1-one], the GI50 at Ba/F3 ERBB2 YVMA turned out to be 206 nM. Moreover, the IC50 was found to be 2840 nM in assay [1] and 83.7 nM in assay [2].

As to `CC#CC(=O)N1CCN2c3cc4c(Nc5ccc(Oc6ccn7ncnc7c6)c(C)c5)ncnc4cc3OC[C@@H]2C1` [Compound 13, (S)-1-(11-((4-([1,2,4]triazolo[1,5-a]pyridin-7-yloxy)-3-methylphenyl)amino)-1,2,4a,5-tetrahydropyrazino[1′,2′:4,5][1,4]oxazino[3,2-g]quinazolin-3(4H)-yl)but-2-yn-1-one], the GI50 at Ba/F3 ERBB2 YVMA was found to be 6.24 nM. Moreover, the concentration for half-maximal inhibition (IC50) in assay [1] stood at 254 nM; in assay [2] it was 13 nM.

As for `CC#CC(=O)N1CCN2c3cc4c(Nc5ccc(Oc6ccc7c(c6)ncn7C)c(C)c5)ncnc4cc3OC[C@@H]2C1` [Compound 14, (S)-1-(11-((3-methyl-4-((1-methyl-1H-benzo[d]imidazol-5-yl)oxy)phenyl)amino)-1,2,4a,5-tetrahydropyrazino[1′,2′:4,5][1,4]oxazino[3,2-g]quinazolin-3(4H)-yl)but-2-yn-1-one], the GI50 on Ba/F3 ERBB2 YVMA was 14.4 nM. Further, the IC50 is 545 nM in assay [1] and 82.8 nM in assay [2].

For the compound `Cc1cc(Nc2ncnc3cc4c(nc23)N2CCN(C(=O)/C=C/CN(C)C)C[C@@H]2CO4)ccc1Oc1ccn2ncnc2c1` [Compound 15, (R,E)-1-(11-((4-([1,2,4]triazolo[1,5-a]pyridin-7-yloxy)-3-methylphenyl)amino)-1,2,4a,5-tetrahydropyrazino[1,2-d]pyrimido[4′,5′:5,6]pyrido[3,2-b][1,4]oxazin-3(4H)-yl)-4-(dimethylamino)but-2-en-1-one], at Ba/F3 ERBB2 YVMA, the GI50 is 4.89 nM. Further, the values for the IC50 in assay [1] and in assay [2] were 284 nM and 6.93 nM, respectively.

`Cc1cc(Nc2ncnc3cc4c(nc23)N2CCN(C(=O)/C=C/CN(C)C)C[C@H]2CO4)ccc1Oc1ccn2ncnc2c1` [Compound 16, (S,E)-1-(11-((4-([1,2,4]triazolo[1,5-a]pyridin-7-yloxy)-3-methylphenyl)amino)-1,2,4a,5-tetrahydropyrazino[1,2-d]pyrimido[4′,5′:5,6]pyrido[3,2-b][1,4]oxazin-3(4H)-yl)-4-(dimethylamino)but-2-en-1-one]: the GI50 at Ba/F3 ERBB2 YVMA was found to be 1.47 nM. For the same compound, the IC50 is 130 nM in assay [1] and 5.8 nM in assay [2].

As to `Cc1cc(Nc2ncnc3cc4c(nc23)N2CCN(C(=O)/C=C/CN(C)C)C[C@H]2CO4)ccc1Oc1ccc2c(c1)ncn2C` [Compound 17, (S,E)-4-(dimethylamino)-1-(11-((3-methyl-4-((1-methyl-1H-benzo[d]imidazol-5-yl)oxy)phenyl)amino)-1,2,4a,5-tetrahydropyrazino[1,2-d]pyrimido[4′,5′:5,6]pyrido[3,2-b][1,4]oxazin-3(4H)-yl)but-2-en-1-one], the GI50 on Ba/F3 ERBB2 YVMA was found to be 5.11 nM. Besides, the values for the IC50 in assay [1] and in assay [2] were 307 nM and 34.3 nM, respectively.

Turning to `Cc1cc(Nc2ncnc3ccc4c(c23)OC[C@H]2CN(C(=O)/C=C/CN(C)C)CCN42)ccc1Oc1ccn2ncnc2c1` [Compound 18, (R,E)-1-(4-((4-([1,2,4]triazolo[1,5-a]pyridin-7-yloxy)-3-methylphenyl)amino)-6a,7,9,10-tetrahydropyrazino[1′,2′:4,5][1,4]oxazino[2,3-f]quinazolin-8(6H)-yl)-4-(dimethylamino)but-2-en-1-one], the GI50 on Ba/F3 ERBB2 YVMA was found to be 223 nM. Also, the IC50 in assay [1] was > 10000 nM; in assay [2], 240 nM.

With `Cc1cc(Nc2ncnc3ccc4c(c23)OC[C@@H]2CN(C(=O)/C=C/CN(C)C)CCN42)ccc1Oc1ccn2ncnc2c1` [Compound 19, (S,E)-1-(4-((4-([1,2,4]triazolo[1,5-a]pyridin-7-yloxy)-3-methylphenyl)amino)-6a,7,9,10-tetrahydropyrazino[1′,2′:4,5][1,4]oxazino[2,3-f]quinazolin-8(6H)-yl)-4-(dimethylamino)but-2-en-1-one formate], at Ba/F3 ERBB2 YVMA, the GI50 stood at 5 nM. Besides, the results for the IC50 in assay [1] and in assay [2] were 679 nM and 11.1 nM, respectively.

In the case of `C=CC(=O)N1CCN2c3ccc4ncnc(Nc5ccc(Oc6ccc7c(c6)ncn7C)c(C)c5)c4c3OC[C@H]2C1` [Compound 20, (R)-1-(4-((3-methyl-4-((1-methyl-1H-benzo[d]imidazol-5-yl)oxy)phenyl)amino)-6a,7,9,10-tetrahydropyrazino[1′,2′:4,5][1,4]oxazino[2,3-f]quinazolin-8(6H)-yl)prop-2-en-1-one], the GI50 at Ba/F3 ERBB2 YVMA was found to be 19.7 nM. Moreover, the IC50 came to 150 nM in assay [1] and 27.5 nM in assay [2].

On to `C=CC(=O)N1CCN2c3ccc4ncnc(Nc5ccc(Oc6ccc7c(c6)ncn7C)c(C)c5)c4c3OC[C@@H]2C1` [Compound 21, (S)-1-(4-((3-methyl-4-((1-methyl-1H-benzo[d]imidazol-5-yl)oxy)phenyl)amino)-6a,7,9,10-tetrahydropyrazino[1′,2′:4,5][1,4]oxazino[2,3-f]quinazolin-8(6H)-yl)prop-2-en-1-one], for which, at Ba/F3 ERBB2 YVMA, the GI50 turned out to be 16.2 nM. The results for the IC50 in assay [1] and in assay [2] were 575 nM and 22.7 nM, respectively.

As for `Cc1cc(Nc2ncnc3ccc4c(c23)OC[C@H]2CN(C(=O)/C=C/CN(C)C)CCN42)ccc1Oc1ccc2c(c1)ncn2C` [Compound 22, (R,E)-4-(dimethylamino)-1-(4-((3-methyl-4-((1-methyl-1H-benzo[d]imidazol-5-yl)oxy)phenyl)amino)-6a,7,9,10-tetrahydropyrazino[1′,2′:4,5][1,4]oxazino[2,3-f]quinazolin-8(6H)-yl)but-2-en-1-one], on Ba/F3 ERBB2 YVMA, the GI50 is 2.12 nM. The IC50 in assay [1] stood at 544 nM; in assay [2], 22.8 nM.

With `Cc1cc(Nc2ncnc3ccc4c(c23)OC[C@@H]2CN(C(=O)/C=C/CN(C)C)CCN42)ccc1Oc1ccc2c(c1)ncn2C` [Compound 23, (S,E)-4-(dimethylamino)-1-(4-((3-methyl-4-((1-methyl-1H-benzo[d]imidazol-5-yl)oxy)phenyl)amino)-6a,7,9,10-tetrahydropyrazino[1′,2′:4,5][1,4]oxazino[2,3-f]quinazolin-8(6H)-yl)but-2-en-1-one], at Ba/F3 ERBB2 YVMA, the GI50 is 13.8 nM. The IC50 is 817 nM in assay [1] and 27.4 nM in assay [2].

As for `C=CC(=O)N1CCN2C[C@H]1COc1c2ccc2ncnc(Nc3ccc(Oc4ccn5ncnc5c4)c(C)c3)c12` [Compound 24, 1-((3S)-13-((4-([1,2,4]triazolo[1,5-a]pyridin-7-yloxy)-3-methylphenyl)amino)-2,3,5,6-tetrahydro-4H-3,7-methano[1,4,7]oxadiazonino[2,3-f]quinazolin-4-yl)prop-2-en-1-one], the GI50 on Ba/F3 ERBB2 YVMA is > 500 nM. In addition, the IC50 was > 10000 nM in assay [1] and 430 nM in assay [2].

Broadly, the IC50 is the concentration that inhibits the measured activity by half.
